# In ChEMBL document CHEMBL4813989, “Design, synthesis, and biological evaluation of nitroisoxazole-containing spiro[pyrrolidin-oxindole] derivatives as novel glutathione peroxidase 4/mouse double minute 2 dual inhibitors that inhibit breast adenocarcinoma cell proliferation” (Eur J Med Chem, 2021):
# Active and inactive are the calls of the source. No cut-off for these calls is given here.
# Legend:
# MCF7 [1] = experiment: Induction of apoptosis in human MCF7 cells assessed as necrotic cells at 1 uM incubated for 48 hrs by annexin-V-FITC and PI staining based flow cytometry analysis (reference value: 3.21 %); format: functional
# MCF-10A = experiment: Cytotoxicity against human MCF-10A cells assessed as reduction in cell viability incubated for 48 hrs by CCK8 assay; format: cell-based
# [2] = molecular target: T1, E3 ubiquitin-protein ligase Mdm2 (Homo sapiens, UniProt Q00987); experiment: Inhibition of MDM2 in human MCF7 cells assessed as increase in MDM2 accumulation at 0.5 to 2 uM incubated for 48 hrs by Western blot analysis; format: cell-based; conditions: dose 0.5-2 µM
# Target sequence in this assay (Q00987 whole entry, looked up): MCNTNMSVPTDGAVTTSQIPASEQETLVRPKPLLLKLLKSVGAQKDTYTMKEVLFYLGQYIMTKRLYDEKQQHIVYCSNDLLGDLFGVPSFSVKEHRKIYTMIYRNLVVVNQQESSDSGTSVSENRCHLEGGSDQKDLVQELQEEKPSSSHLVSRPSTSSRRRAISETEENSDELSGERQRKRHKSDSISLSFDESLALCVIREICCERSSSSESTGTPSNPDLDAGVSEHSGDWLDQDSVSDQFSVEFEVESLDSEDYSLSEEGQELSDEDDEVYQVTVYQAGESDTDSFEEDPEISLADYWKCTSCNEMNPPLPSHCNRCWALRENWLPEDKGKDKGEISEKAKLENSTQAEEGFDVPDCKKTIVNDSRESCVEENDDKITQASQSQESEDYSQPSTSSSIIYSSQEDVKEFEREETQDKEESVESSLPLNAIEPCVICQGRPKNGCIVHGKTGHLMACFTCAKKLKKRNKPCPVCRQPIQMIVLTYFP
# [3] = Toxicity in BALB/c mouse xenografted with human MCF7 cells assessed as effect on body weight at 25 to 50 mg/kg, ip administered once for 17 days; format: organism-based; conditions: in vivo, 408 h, dose 25-50 mg/kg, time 17 day
# MCF7 [4] = experiment: Antiproliferative activity against human MCF7 cells assessed as reduction in cell growth incubated for 48 hrs by CCK8 assay; conditions: MCF7, 48 h
# MCF7 [5] = experiment: Induction of apoptosis in human MCF7 cells assessed as viable cells at 0.5 uM incubated for 48 hrs by annexin-V-FITC and PI staining based flow cytometry analysis (reference value: 93.1 %); format: functional; conditions: read-out: Activity
# MCF7 [6] = experiment: Induction of LPO production in human MCF7 cells at 1 uM by C11-BODIPY staining based confocal laser scanning microscopic analysis; format: functional, cell-based
# MCF7 [7] = experiment: Induction of apoptosis in human MCF7 cells assessed as early apoptotic cells at 1 uM incubated for 48 hrs in presence of Fer-1 by annexin-V-FITC and PI staining based flow cytometry analysis (reference value: 1.05 %); format: functional
# MCF7 [8] = experiment: Induction of apoptosis in human MCF7 cells assessed as necrotic cells at 1 uM incubated for 48 hrs in presence of Fer-1 by annexin-V-FITC and PI staining based flow cytometry analysis (reference value: 3.21 %); format: functional
# [9] = molecular target: T2, Phospholipid hydroperoxide glutathione peroxidase GPX4 (Homo sapiens) (UniProt P36969); experiment: Binding affinity in GPX4 in human MCF7 cells assessed as increase in stability in 60 and 65 degreeC at 100 uM by cellular thermal shift assay; format: cell-based
# T2 sequence (whole entry): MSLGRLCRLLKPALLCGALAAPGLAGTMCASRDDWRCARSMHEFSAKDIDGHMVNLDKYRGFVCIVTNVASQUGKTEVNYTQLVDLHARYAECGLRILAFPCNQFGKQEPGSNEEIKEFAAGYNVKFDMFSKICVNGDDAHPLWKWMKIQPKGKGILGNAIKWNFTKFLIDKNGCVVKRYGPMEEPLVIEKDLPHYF
# MCF7 [10] = experiment: Induction of apoptosis in human MCF7 cells assessed as early apoptotic cells at 0.5 uM incubated for 48 hrs by annexin-V-FITC and PI staining based flow cytometry analysis (reference value: 1.05 %); format: functional
# MCF7 [11] = experiment: Antitumor activity against human MCF7 cells xenografted in BALB/c mouse assessed as reduction in Ki-67 expression at 25 to 50 mg/kg, ip administered once for 17 days by immunohistochemical analysis; format: functional, organism-based; conditions: dose 25-50 mg/kg, time 17.0 day
# MCF7 [12] = experiment: Antiproliferative activity against human MCF7 cells assessed as reduction in cell growth incubated for 48 hrs in presence of Fer-1 by CCK8 assay; conditions: MCF7, 48 h
# MCF7 [13] = experiment: Induction of apoptosis in human MCF7 cells assessed as viable cells at 1 uM incubated for 48 hrs in presence of Fer-1 by annexin-V-FITC and PI staining based flow cytometry analysis (reference value: 93.1 %); format: functional; conditions: read-out: Activity
# MCF7 [14] = experiment: Induction of apoptosis in human MCF7 cells assessed as increase in cleaved caspase-9 level at 2 uM incubated for 48 hrs by Western blot analysis; format: functional, cell-based
# [15] = molecular target: T1, E3 ubiquitin-protein ligase Mdm2; experiment: Inhibition of MDM2 (unknown origin) using peptide as substrate incubated for 30 mins by fluorescence polarization assay
# Target sequence in this assay (Q00987 whole entry): as the sequence (Q00987 whole entry, looked up) above
# MCF7 [16] = experiment: Induction of apoptosis in human MCF7 cells assessed as late apoptotic cells at 1 uM incubated for 48 hrs by annexin-V-FITC and PI staining based flow cytometry analysis (reference value: 2.61 %); format: functional
# MCF7 [17] = experiment: Induction of apoptosis in human MCF7 cells assessed as late apoptotic cells at 0.5 uM incubated for 48 hrs by annexin-V-FITC and PI staining based flow cytometry analysis (reference value: 2.61 %); format: functional
# MCF7 [18] = experiment: Induction of apoptosis in human MCF7 cells assessed as necrotic cells at 0.5 uM incubated for 48 hrs by annexin-V-FITC and PI staining based flow cytometry analysis (reference value: 3.21 %); format: functional
# MCF7 [19] = experiment: Induction of apoptosis in human MCF7 cells assessed as viable cells at 1 uM incubated for 48 hrs by annexin-V-FITC and PI staining based flow cytometry analysis (reference value: 93.1 %); format: functional; conditions: read-out: Activity
# MCF7 [20] = experiment: Induction of ROS production in human MCF7 cells at 1 uM in presence of Fer-1 by DCFH-DA assay; format: functional, cell-based
# [21] = molecular target: E3 ubiquitin-protein ligase Mdm2 (Mus musculus) (UniProt P23804); experiment: In vivo inhibition of MDM2 in human MCF7 cells xenografted in BALB/c mouse assessed as increase in p53 expression at 25 to 50 mg/kg, ip administered once for 17 days by immunofluorescence analysis; format: functional, organism-based; conditions: dose 25-50 mg/kg, time 17.0 day
# Mus musculus = experiment: In vivo induction of apoptosis in human MCF7 cells xenografted in BALB/c mouse assessed as increase in TUNEL expression at 25 to 50 mg/kg, ip administered once for 17 days by immunohistochemical analysis; format: functional, organism-based; conditions: dose 25-50 mg/kg, time 17.0 day
# MCF7 [22] = experiment: Induction of apoptosis in human MCF7 cells assessed as early apoptotic cells at 0.1 uM incubated for 48 hrs by annexin-V-FITC and PI staining based flow cytometry analysis (reference value: 1.05 %); format: functional
# MCF7 [23] = experiment: Induction of apoptosis in human MCF7 cells assessed as viable cells at 0.1 uM incubated for 48 hrs by annexin-V-FITC and PI staining based flow cytometry analysis (reference value: 93.1 %); format: functional; conditions: read-out: Activity
# MCF7 [24] = experiment: Induction of apoptosis in human MCF7 cells assessed as necrotic cells at 0.1 uM incubated for 48 hrs by annexin-V-FITC and PI staining based flow cytometry analysis (reference value: 3.21 %); format: functional
# MCF7 [25] = experiment: Induction of apoptosis in human MCF7 cells assessed as early apoptotic cells at 1 uM incubated for 48 hrs by annexin-V-FITC and PI staining based flow cytometry analysis (reference value: 1.05 %); format: functional
# MCF7 [26] = experiment: Induction of ROS production in human MCF7 cells at 1 uM by DCFH-DA assay; format: functional, cell-based
# MCF7 [27] = experiment: Antitumor activity against human MCF7 cells xenografted in BALB/c mouse assessed as tumor growth inhibition at 25 to 50 mg/kg, ip administered once for 17 days; format: functional, organism-based; conditions: dose 25-50 mg/kg, time 17.0 day
# [28] = molecular target: T1, E3 ubiquitin-protein ligase Mdm2; experiment: Inhibition of MDM2 in human MCF7 cells assessed as increase in p53 accumulation at 0.5 to 2 uM incubated for 48 hrs by Western blot analysis; format: cell-based; conditions: dose 0.5-2 µM
# Target sequence in this assay (Q00987 whole entry, looked up): as the sequence (Q00987 whole entry, looked up) above
# [29] = molecular target: T2, Phospholipid hydroperoxide glutathione peroxidase GPX4 (Homo sapiens); experiment: Inhibition of GPX4 in human MCF7 cells assessed as increase in GPX4 degradation incubated for 48 hrs by Western blot analysis; format: cell-based; conditions: dose 0.1-2 µM
# MCF7 [30] = experiment: Induction of apoptosis in human MCF7 cells assessed as late apoptotic cells at 1 uM incubated for 48 hrs in presence of Fer-1 by annexin-V-FITC and PI staining based flow cytometry analysis (reference value: […] %); format: functional
# MCF7 [31] = experiment: Induction of apoptosis in human MCF7 cells assessed as late apoptotic cells at 0.1 uM incubated for 48 hrs by annexin-V-FITC and PI staining based flow cytometry analysis (reference value: 2.61 %); format: functional
# MCF7 [32] = experiment: Induction of LPO production in human MCF7 cells at 1 uM in presence of Fer-1 by C11-BODIPY staining based confocal laser scanning microscopic analysis; format: functional, cell-based
# Sequence of E3 ubiquitin-protein ligase Mdm2 (Mus musculus) (P23804 whole entry): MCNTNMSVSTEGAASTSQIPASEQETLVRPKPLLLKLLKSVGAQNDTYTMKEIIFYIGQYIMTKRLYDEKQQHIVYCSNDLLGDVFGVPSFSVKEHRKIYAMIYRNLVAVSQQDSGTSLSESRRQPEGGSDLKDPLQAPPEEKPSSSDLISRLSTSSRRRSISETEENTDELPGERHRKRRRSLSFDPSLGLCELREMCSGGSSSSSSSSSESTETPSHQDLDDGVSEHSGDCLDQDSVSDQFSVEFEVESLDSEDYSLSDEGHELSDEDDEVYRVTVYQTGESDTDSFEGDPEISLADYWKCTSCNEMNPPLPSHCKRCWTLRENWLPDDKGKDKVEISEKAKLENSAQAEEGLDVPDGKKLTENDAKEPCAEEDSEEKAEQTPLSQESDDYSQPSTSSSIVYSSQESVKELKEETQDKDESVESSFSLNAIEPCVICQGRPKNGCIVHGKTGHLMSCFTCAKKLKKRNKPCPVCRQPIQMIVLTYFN
structure (smiles),measurement,setting,value
Cc1noc([C@@H]2[C@@H](c3ccccc3)[C@H](C(F)(F)F)N[C@@]23C(=O)Nc2cc(Cl)ccc23)c1[N+](=O)[O-],Activity,MCF7 [1],2.61%
same,Activity,MCF-10A,Non-Toxic
same,inhibition,[2],Active
same,Activity,[3],Non-Toxic
same,IC50,MCF7 [4],120 nM
same,viability at 0.5 µM,MCF7 [5],83.8%
same,Activity,MCF7 [6],Active
same,Activity,MCF7 [7],7.98%
same,Activity,MCF7 [8],3.35%
same,Activity,[9],Active
same,Activity,MCF7 [10],7.81%
same,Activity,MCF7 [11],Active
same,IC50,MCF7 [12],13500 nM
same,viability at 1 µM,MCF7 [13],84%
same,Activity,MCF7 [14],Active
same,Ki,[15],240 nM
same,Activity,MCF7 [16],4.91%
same,Activity,MCF7 [17],3.16%
same,Activity,MCF7 [18],5.25%
same,viability at 1 µM,MCF7 [19],81.2%
same,Activity,MCF7 [20],inactive
same,inhibition,[21],Active
same,Activity,Mus musculus,Active
same,Activity,MCF7 [22],1.39%
same,viability at 0.1 µM,MCF7 [23],91.3%
same,Activity,MCF7 [24],4.51%
same,Activity,MCF7 [25],11.3%
same,Activity,MCF7 [26],Active
same,TGI,MCF7 [27],Active
same,inhibition,[28],Active
same,inhibition,[29],Active
same,Activity,MCF7 [30],4.71%
same,Activity,MCF7 [31],2.85%
same,Activity,MCF7 [32],inactive
